# According to PubChem BioAssay AID1645868 (Buhrlage Lab, Dana-Farber Cancer Institute and Novartis …, 2021):
# The source made the active and inactive calls.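 How the source made its calls: active means maximal percent inhibition of the deubiquitinase OTUD3 of at least 30% across the tested doses; inactive means the rest.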
# Molecular target: OTU domain-containing protein 3 (Homo sapiens) (UniProt Q5T2D3)
# Assay: Validation of screening hits, potency titration, in vitro enzymatic, OTU domain-containing protein 3 DUB inhibitors (AID 1645868)
# Conditions: purified OTUD3, ubiquitin-rhodamine cleavage fluorescence, 2 h
# Sequence of OTU domain-containing protein 3 (Homo sapiens) (Q5T2D3 whole entry, looked up, the tested form may be a part): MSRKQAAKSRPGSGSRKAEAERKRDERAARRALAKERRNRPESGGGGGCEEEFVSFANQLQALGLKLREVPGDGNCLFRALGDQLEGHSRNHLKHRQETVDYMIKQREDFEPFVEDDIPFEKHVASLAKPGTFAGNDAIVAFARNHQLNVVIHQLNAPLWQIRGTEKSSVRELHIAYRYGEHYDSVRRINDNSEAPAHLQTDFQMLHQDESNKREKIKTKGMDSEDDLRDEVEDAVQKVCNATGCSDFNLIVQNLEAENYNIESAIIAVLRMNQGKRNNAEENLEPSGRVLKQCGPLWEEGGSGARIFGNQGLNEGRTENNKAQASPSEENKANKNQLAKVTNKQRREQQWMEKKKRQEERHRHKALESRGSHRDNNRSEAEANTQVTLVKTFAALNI
row,SMILES,IC50
1,O=S(=O)(Nc1ccc(O)cc1)c1ccc2oc3ccc(S(=O)(=O)Nc4ccc(O)cc4)cc3c2c1,46.1 µM
2,Cn1c2ccccc2c2ncn(Cc3ccc(F)cc3)c(=O)c21,> 50 µM (inactive)
3,COc1cc(COc2ccc3c(C)c(CC(=O)N4CC[C@@]5(O)CCCC[C@H]5C4)c(=O)oc3c2C)cc(OC)c1OC,> 50 µM (inactive)
4,CCCNc1cc(-c2ccccc2)nc2nc(-c3cccnc3)nn12,> 50 µM (inactive)
5,Cc1ccc(-n2nnc(C(=O)NC3CCCCC3)c2N)cc1,> 50 µM (inactive)
6,c1ccc2c(c1)CCc1c-2nc2ccccc2c1N1CCOCC1,> 50 µM (inactive)
7,CC1CS(=O)(=O)N(c2ccc(C(=O)Nc3ccc4c(c3)OCCO4)cc2)C1=O (configuration not stated),28.5 µM
8,COc1cccc2cccc(O)c12,> 50 µM (inactive)
9,COc1cccc(-c2nc3cnccn3c2NCc2ccc3c(c2)OCO3)c1,> 50 µM (inactive)
10,Cn1c(C(=O)NCc2ccccn2)cc2c(=O)[nH]c3ccccc3c21,> 50 µM (inactive)
11,C=C(NC(=O)C(=C)NC(=O)c1csc(-c2ccc3c(n2)-c2csc(n2)-c2csc(n2)C(C(C)C2CO2)NC(=O)C(Cc2ccc(O)cc2)NC(=O)c2csc(n2)C(C(O)c2ccccc2)NC(=O)c2nc(sc2C)C(CC(N)=O)NC(=O)c2csc-3n2)n1)C(=O)O (configuration not stated),43.6 µM
12,Cc1ccc(Cn2nnc(-c3ccccc3Cl)n2)cc1,> 50 µM (inactive)
13,Cc1cccc(OCCn2c(CCNC(=O)C3CCCCC3)nc3ccccc32)c1,32.8 µM
14,CN=C(N)NCCC/C=C/CCCC(C)CC(C)C1OC(=O)/C=C/C(C)C(O)CC(O)C(C)C(O)CCC(C)C(O)CC2(O)OC(CC(OC(=O)CC(=O)O)CC(O)CC(O)C(C)C(O)/C=C/C1C)CC(O)C2O (configuration not stated),> 50 µM (inactive)
15,O=C(OC1CSc2nc3ccccc3n2C1)c1ccc([N+](=O)[O-])o1 (configuration not stated),25.7 µM
16,CC(C)=CCC/C(C)=C/C[C@]1(O)C(=O)c2cc(O)cc(O)c2C(=O)[C@@]1(Cl)CC=C(C)C,> 50 µM (inactive)
17,O=C(CN1C=NC2=NS(=O)(=O)c3ccccc3N21)Nc1cc(F)ccc1F,31.8 µM
18,Cc1c(C(=O)Nc2cccc(C(F)(F)F)c2)cnn1-c1ccccn1,> 50 µM (inactive)
19,Cc1noc(-c2cc(=O)n(CC(=O)NCc3ccccc3)c3ccccc23)n1,> 50 µM (inactive)
20,c1ccc2c(c1)ccc1nnc(-c3ccc4c(c3)OCO4)n12,> 50 µM (inactive)
21,CC(C)N1CC[C@@H]2[C@H](C1)CN2C(=O)Nc1cccc(F)c1,> 50 µM (inactive)
22,CC(C)NC(=O)CN1C(=O)CC(C)Sc2ccc(S(=O)(=O)N3CCCCC3)cc21 (configuration not stated),31.7 µM
23,COc1ccc(C2SCC(=O)Nc3c2c(=O)[nH]n3C2CCCCCC2)cc1 (configuration not stated),30.1 µM

row,SMILES,IC50
1,CC1(O)CC(=O)c2c(cc3cc(O)cc(O)c3c2O)C1 (configuration not stated),0.188 µM
2,O=C(Cn1c(=O)n(-c2ccccc2)c(=O)c2ccc(C(=O)NCc3ccc4c(c3)OCO4)cc21)NCCC1=CCCCC1,34.4 µM
3,c1ccc(CN2CCN(c3nc4ccccc4n4nnnc34)CC2)cc1,> 50 µM (inactive)
4,Cc1cccc(NC(=O)c2noc3c2CCc2sccc2-3)n1,> 50 µM (inactive)
5,CC(C)Cc1nc2oc3c(N(C)CCO)ncnc3c2c2c1CCC2,> 50 µM (inactive)
6,Cc1sc(-c2ccc(Cl)nc2)nc1OC(=O)c1ccc(F)cc1F,> 50 µM (inactive)
7,Cc1ccc(NC(=O)C2CCN(c3cncnc3N3CCCC3)CC2)cc1,> 50 µM (inactive)
8,Cc1sc2ncn3c(=O)n(CC(=O)Nc4ccc(F)c(Cl)c4)nc3c2c1C,> 50 µM (inactive)
9,CC(C)(C)C(=O)[C@@H]1[C@@H](C(=O)c2ccc3c(c2)OCO3)[C@@]2(C(=O)Nc3ccccc32)[C@H]2c3ccccc3C=CN12,> 50 µM (inactive)
10,C[C@@]12c3ccc4c(c3C(=O)c3occ(c31)C(O)C[C@H]2O)CCC4=O (some centres not stated),> 50 µM (inactive)
11,COc1ccc(S(=O)(=O)N2CCc3ccccc32)cc1C(=O)Nc1ccc2[nH]c(=O)[nH]c2c1,19.5 µM
12,O=C(NC1CCN(Cc2ccccc2)CC1)c1[nH]nc2c1CCc1ccccc1-2,> 50 µM (inactive)
13,C/C1=C\CCC(C)C(O)CC(O)C(C)C(O)CCC(C)C(O)CC2(O)OC(CC(OC(=O)CC(=O)O)CC(O)CC(O)CC(O)C(C)C(O)/C=C/C(C)C(C(C)CCCCCCCCN=C(N)N)OC1=O)CC(O)C2O (configuration not stated),> 50 µM (inactive)
14,Cc1cc(C(=O)N2CCOCC2)c(C)n1-c1ccc(O)cc1,> 50 µM (inactive)
15,COc1ccc(-c2nc(C)c(C(=O)NCc3ccc(S(N)(=O)=O)cc3)s2)cc1,> 50 µM (inactive)
16,CC(C)CCn1c(=O)c2ccccc2n2c(CCC(=O)NC3CCCCCC3)nnc12,> 50 µM (inactive)
17,O=C1CC(NS(=O)(=O)c2ccc3ccccc3c2)CN1c1cccc(F)c1 (configuration not stated),> 50 µM (inactive)
18,O=C(CCCc1c[nH]c2ccccc12)Nc1ccc2c(c1)OCCO2,> 50 µM (inactive)
19,Cc1ccc(C)c(Cn2nnc3c(=O)[nH]c(C4CCN(S(=O)(=O)c5ccc(S(=O)(=O)NC6CC6)cc5)CC4)nc32)c1,35.1 µM
20,COc1ccc(-c2ocnc2C(=O)Nc2cccc(Cl)c2C)cc1OC,> 50 µM (inactive)
21,CC(C)c1cc2c(c(O)c1O)[C@@]13CCCC(C)(C)[C@@H]1C[C@@H]2OC3=O,28.1 µM
22,COc1ccccc1-c1nc(-c2nnn(Cc3ccc(C)cc3)c2C)no1,> 50 µM (inactive)
23,COc1ccc(/C=C/C(=O)Nc2cccc(S(=O)(=O)Nc3ccccc3Cl)c2)c(OC)c1,25.5 µM

row,SMILES,IC50
1,Cc1cc(CSc2ncccc2C(=O)Nc2ccnn2Cc2cccnc2)no1,> 50 µM (inactive)
2,COc1ccc(C2CC(c3ccccc3)N(C(=O)C3CC3)c3ncnn32)cc1 (configuration not stated),> 50 µM (inactive)
3,CN(Cc1ccccc1)S(=O)(=O)c1ccc2[nH]cc(C(=O)NCc3cccs3)c(=O)c2c1,3.15 µM
4,Cc1ccc2nnc(-c3ccccc3)c(C(=O)N3CCN(c4ccccn4)CC3)c2c1,> 50 µM (inactive)
5,Cc1cn[nH]c1C1COCCN1C(=O)c1ccc2ncccc2c1 (configuration not stated),> 50 µM (inactive)
6,Clc1ccc(C[n+]2cc(-c3ccc(Cl)cc3)n3c2CCC3)cc1,> 50 µM (inactive)
7,CCc1nc(-c2cc(C(=O)N3CCOCC3)c3ccccn23)cs1,> 50 µM (inactive)
8,O=C(CSc1nc2cc(S(=O)(=O)Nc3ccccc3Cl)ccc2o1)Nc1ccc(N2CCOCC2)cc1,> 50 µM (inactive)
9,O=[N+]([O-])c1ccc(NCC2COc3ccccc3O2)c(Cl)c1 (configuration not stated),> 50 µM (inactive)
10,O=C(Nc1ccncc1)c1ncoc1-c1cccc(Cl)c1,> 50 µM (inactive)
11,Cc1nnc(NC(=O)C2CCN(c3ccc(S(N)(=O)=O)cc3[N+](=O)[O-])CC2)o1,15.6 µM
12,N#Cc1cccnc1N1CCN(C(=O)Nc2cccc3ccccc23)CC1,> 50 µM (inactive)
13,O=C(CCn1c(=O)c2ccccc2n(Cc2cc(=O)n3ccccc3n2)c1=O)NCCc1ccc(Cl)cc1,30.6 µM
14,CC1(C(=O)NCc2ccccc2)Cn2c(cc3ccccc32)C(=O)N1Cc1ccccc1 (configuration not stated),> 50 µM (inactive)
15,COc1ccc(NC(=O)c2nnn(-c3ccccc3F)c2C)cc1OC,> 50 µM (inactive)
16,Cc1ccc2c(c1)N(C)C(=O)c1cc(NC(=O)c3ccc(F)cc3)ccc1O2,22.5 µM
17,Cc1cccc(NC(=O)Nc2ccc(C)n(CC(=O)Nc3ccccc3)c2=O)c1,> 50 µM (inactive)
18,Cc1nnc(Sc2cc(C(=O)NCCN3CCCC3)c3ccccc3n2)s1,> 50 µM (inactive)
19,Cn1cc(CCNC(=O)c2cc3ccccc3[nH]2)c2cccnc21,> 50 µM (inactive)
20,Cc1ccc2oc(=O)c(S(=O)(=O)N3CCCCC3)cc2c1,43.1 µM
21,COCCNC(=O)c1ccnn1-c1ccc2ccc(-c3cccnc3)cn12,> 50 µM (inactive)
22,Cc1cc(=O)n(CC(=O)NCc2ccccc2F)c2c1c(C)nn2-c1ccccc1,28.6 µM
23,NC(=O)c1nc(-c2cccnc2)nc2c1[nH]c(=O)n2-c1ccc2c(c1)OCO2,> 50 µM (inactive)

row,SMILES,IC50
1,COCCNC(=O)c1ccn(-c2ccc3ccc(-c4cnn(C)c4)cn23)n1,> 50 µM (inactive)
2,O=C(Cc1ccccc1F)Nc1nc(-c2ccco2)c(-c2ccco2)s1,> 50 µM (inactive)
3,O=C1C=CC(O)C2C1CC13SSC4(CC5C(=O)C=CC(O)C5N4C1=O)C(=O)N23 (configuration not stated),> 50 µM (inactive)
4,Cn1c(COc2ccccc2)nnc1SCC(=O)Nc1ccc(N2CCOCC2)cc1,22.5 µM
5,Cc1ccc2c(c1C)NC(=O)[C@]21[C@@H]2C(=O)N(c3cc(Cl)ccc3Cl)C(=O)[C@@H]2[C@@H]2CCCN21,> 50 µM (inactive)
6,COC(=O)c1cc(C#N)c(NCc2ccccc2)nc1C,> 50 µM (inactive)
7,O=C(/C=C/c1ccc(F)cc1)N1CCc2ccccc2C1,> 50 µM (inactive)
8,COCCNC(=O)c1ccc(-c2ccc(N3CCCCC3)nc2)cc1,25 µM
9,COc1ccc(Cl)cc1NC(=O)Cn1c(=O)cc(C)c2c(C)nn(-c3ccccc3)c21,44.3 µM
10,CC(CCc1ccccc1)NC(=O)C(=O)c1cn(CC(=O)N2CCOCC2)c2ccccc12 (configuration not stated),> 50 µM (inactive)
11,Cc1cc(NC(=O)COc2ccc3oc4ccccc4c3c2)no1,> 50 µM (inactive)
12,COc1ccc2nc(SCC(=O)Nc3ccc(NC(C)=O)cc3)c(C)cc2c1,31.9 µM
13,COc1ccc(C(=O)Nc2cc(F)c3nc(N4CCOCC4)ccc3c2)c(OC)c1,> 50 µM (inactive)
14,COc1ccc(OC)c(-c2cc(C(=O)Nc3c(C)nn(Cc4ccccc4)c3C)no2)c1,> 50 µM (inactive)
15,Cc1ccc(-n2cc(C(=O)NCc3cccnc3)nn2)cc1C,26.5 µM
16,FC(F)(F)c1ccccc1CCN1CCc2nc3ncc(Cl)cc3cc2C1,> 50 µM (inactive)
17,Cc1cc(C(=O)N2CCN(C3CCN(Cc4ccc(Cl)o4)CC3)C(=O)C2)c(C)o1,> 50 µM (inactive)
18,Cc1cc(C(=O)Nc2ccc3c(c2)OCCO3)no1,> 50 µM (inactive)
19,Cc1cc(C)n(-c2cccc(C(=O)Nc3ccc4c(c3)CCN4S(C)(=O)=O)c2)n1,> 50 µM (inactive)
20,COc1ccc(NC(=O)c2nc3n(n2)-c2ccccc2S(=O)(=O)N3)cn1,> 50 µM (inactive)
21,O=C(Nc1ccc(F)cc1F)NC1CCN(c2ccccc2)C1=O (configuration not stated),32.9 µM
22,Cc1nnc(C(=O)Nc2ccc(C(=O)NCc3ccccc3C)cc2)s1,28.5 µM
23,Cc1ccc(C(=O)Nc2c(C(=O)N3CCN(c4ccccc4)CC3)[nH]c3ccccc23)cc1,> 50 µM (inactive)
